Reference: article PMC11714206, “Massively Parallel Screening of Toll/Interleukin‐1 Receptor (TIR)‐Derived Peptides Reveals Multiple Toll‐Like Receptors (TLRs)‐Targeting Immunomodulatory Peptides” (Advanced Science, 2024)
Blank lines part the entries; values can stand above or below the sequence they belong to.

Molecular target: T1, MyD88^TIR (Homo sapiens, UniProt Q99836)
T1 construct: MyD88 (residues 148–296); 6xHis; made in house; host or cells: E. coli BL21 (DE3)
Experiment: T‐Surf phage library (P8 and P3) selection against MyD88^TIR, four rounds, NGS read counts
Type: binding
Settings: for P3_MyD88 Rank (after) / P3_MyD88 Rank (before): P3 library; for P8_MyD88 Rank (after) / P8_MyD88 Rank (before): P8 library; for Population: 4th round of selection against MyD88 TIR, share of NGS reads
How it was run: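 Library of 190 946 TIR‐derived peptides on P8 or P3 was panned on immobilized TIR domain coated at 5 µg mL^−1, BSA‐blocked, 1 h binding at RT, PBS/0.5% Tween‐20 washes, HCl elution, TG1 amplification. Fourth‐round pools were PCR‐barcoded, sequenced (100 bp paired‐end, Phred ≥30), and peptides ranked by read counts.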

[1] = P8_MyD88: rank by NGS read count after grouping
[2] = P8_MyD88: rank by NGS read count before grouping
[3] = selection against MyD88 TIR, rank by count after grouping
[4] = selection against MyD88 TIR, rank by count before grouping
[5] = P8_MyD88: rank by count after grouping
[6] = P8_MyD88: rank by count before grouping
[7] = P3_MyD88: rank by count after grouping
[8] = P3_MyD88: rank by count before grouping
[9] = selection against MyD88, rank by count after grouping
[10] = selection against MyD88, rank by count before grouping
[11] = 4R selection against MyD88, rank after grouping
[12] = 4R selection against MyD88, rank before grouping
[13] = selection against MyD88, rank after grouping
[14] = selection against MyD88, rank before grouping
[15] = P8_MyD88 pool: P8 T-Surf phage library
[16] = P3_MyD88 pool: P3 T-Surf phage library

T1 sequence (Q99836 148-296): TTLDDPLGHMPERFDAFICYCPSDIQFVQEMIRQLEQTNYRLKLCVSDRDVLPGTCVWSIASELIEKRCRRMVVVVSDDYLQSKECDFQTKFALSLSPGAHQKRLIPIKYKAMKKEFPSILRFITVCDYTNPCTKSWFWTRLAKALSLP

Sequence: SAAYYEFGERLIGRVE
- Rank (after) [1]: 873
- Rank (before) [2]: 3705

Sequence: DHHLDLPRGKAIKPAILR
- Rank (after) [7]: 162
- Rank (before) [8]: 2019

Sequence: YLQDLDWFYERLVSLF
- Rank (after) [5]: 478
- Rank (before) [6]: 2080

Sequence: WFLEPLEKILQAHGTT
- P8_MyD88 Rank (after) [11]: 600
- P8_MyD88 Rank (before) [12]: 1360

Sequence: ELDFSHFWLFDAGGDAAI
- Rank (after) [1]: 956
- Rank (before) [2]: 3183

Sequence: LGYHWNDREYFLDIED
- P8_MyD88 Rank (after) [13]: 536
- P8_MyD88 Rank (before) [14]: 3307

Sequence: LKWGDPYFWSKLLYSM
- P3_MyD88 Rank (after) [3]: 247
- P3_MyD88 Rank (before) [4]: 2423

Sequence: KEVEGWRGALTKKASL
- P3_MyD88 Rank (after) [11]: 626
- P3_MyD88 Rank (before) [12]: 3614

Sequence: LSRVPSVHEFRGFVGV
- P3_MyD88 Rank (after) [13]: 573
- P3_MyD88 Rank (before) [14]: 2392

Sequence: DWVWDYLLPNLEGPG
- P8_MyD88 Rank (after) [3]: 260
- P8_MyD88 Rank (before) [4]: 1038

Sequence: DYASSSWYLDELVHILW
- P8_MyD88 Rank (after) [3]: 262
- P8_MyD88 Rank (before) [4]: 693

Sequence: WRWMNCCRFCMRVNC
- P8_MyD88 Rank (after) [9]: 729
- P8_MyD88 Rank (before) [10]: 1649

Sequence: NQWRSSPTAWASLSFA
- P3_MyD88 Rank (after) [13]: 530
- P3_MyD88 Rank (before) [14]: 3474

Sequence: GEVPRYIFTGHLHATQ
- P3_MyD88 Rank (after) [11]: 633
- P3_MyD88 Rank (before) [12]: 1826

Sequence: LFWDRLIYAVSDVASA
- Rank (after) [5]: 111
- Rank (before) [6]: 119
- Population [15]: 0.02%

Sequence: WALSELVEILRARENM
- P8_MyD88 Rank (after) [3]: 195
- P8_MyD88 Rank (before) [4]: 254

Sequence: LEWGEPIVLEKQRSVT
- P3_MyD88 Rank (after) [13]: 563
- P3_MyD88 Rank (before) [14]: 2328

Sequence: DQHRDLPRGKAIKPEILG
- Rank (after) [7]: 168
- Rank (before) [8]: 2067

Sequence: DWEWEYLRPNLEGTAG
- P8_MyD88 Rank (after) [9]: 768
- P8_MyD88 Rank (before) [10]: 2488

Sequence: NHHLDPPRGKANKPGILG
- P3_MyD88 Rank (after) [9]: 702
- P3_MyD88 Rank (before) [10]: 3461

Sequence: QDLGWFYERLFSQM
- P8_MyD88 Rank (after) [9]: 735
- P8_MyD88 Rank (before) [10]: 3564

Sequence: QYSDTLLEHTANFRM
- Rank (after) [7]: 392
- Rank (before) [8]: 2842

Sequence: DWVWEHFVGIEDHIK
- P8_MyD88 Rank (after) [13]: 513
- P8_MyD88 Rank (before) [14]: 2472

Sequence: EWILSKLSQHILKREK
- P3_MyD88 Rank (after) [11]: 632
- P3_MyD88 Rank (before) [12]: 2128

Sequence: DPQLLDWLYERLRRPV
- Rank (after) [1]: 999
- Rank (before) [2]: 3024

Sequence: EGFTGFLYEALTRYGI
- Rank (after) [5]: 174
- Rank (before) [6]: 197

Sequence: NDSLFWDRLPYSLNVT
- Rank (after) [5]: 468
- Rank (before) [6]: 3868

Sequence: NGQSSRFKDDADLVGQ
- P3_MyD88 Rank (after) [9]: 678
- P3_MyD88 Rank (before) [10]: 3337

Sequence: DHHLDLPRGKANKPEILD
- P3_MyD88 Rank (after) [13]: 555
- P3_MyD88 Rank (before) [14]: 2035

Sequence: SENYATSPWALDELVRIVEA
- P3_MyD88 Rank (after) [3]: 258
- P3_MyD88 Rank (before) [4]: 1170

Results, then the sequence that gave them:

- P3_MyD88 Rank (after) [3]: 201
- P3_MyD88 Rank (before) [4]: 3055
Sequence: SELRVEDDGSVIPLEM

- Rank (after) [5]: 406
- Rank (before) [6]: 1626
Sequence: WDFASNMEQLLDRLYY

- P3_MyD88 Rank (after) [9]: 709
- P3_MyD88 Rank (before) [10]: 2288
Sequence: LVAHEISKKLKIFATM

- Rank (after) [1]: 953
- Rank (before) [2]: 1659
Sequence: SQRADCSWEWQKMLYP

- P8_MyD88 Rank (after) [13]: 556
- P8_MyD88 Rank (before) [14]: 2609
Sequence: DPLVMVWLYVRPVSLF

- Rank (after) [5]: 435
- Rank (before) [6]: 1767
Sequence: YASYDDNDYYWVTPVLLRLV

- P8_MyD88 Rank (after) [9]: 737
- P8_MyD88 Rank (before) [10]: 3124
Sequence: DSLIWDRLLYSIKVTE

- Rank (after) [5]: 131
- Rank (before) [6]: 142
- Population [15]: 0.0116%
Sequence: EIARQLLSEYLNIAVY

- P3_MyD88 Rank (after) [3]: 229
- P3_MyD88 Rank (before) [4]: 1765
Sequence: VGKLKKGESFAPELLR

- P8_MyD88 Rank (after) [9]: 685
- P8_MyD88 Rank (before) [10]: 3567
Sequence: QDLEQFYERLVSLI

- P8_MyD88 Rank (after) [9]: 682
- P8_MyD88 Rank (before) [10]: 1660
Sequence: SGQAVTEDKLGWLSNP

- Population [16]: 0.00466%
Sequence: EWIREQLRPALKERLP

- P3_MyD88 Rank (after) [3]: 255
- P3_MyD88 Rank (before) [4]: 1460
Sequence: YYLDPSHLRKQSGESE

- Population [16]: 0.00378%
Sequence: NQWRNALTKVASL

- P3_MyD88 Rank (after) [13]: 527
- P3_MyD88 Rank (before) [14]: 3389
Sequence: NDLLHVWSSKANSLVG

- Rank (after) [5]: 120
- Rank (before) [6]: 174
- Population [15]: 0.00809%
Sequence: ELDFSHFWLFDGQATGEA

- P3_MyD88 Rank (after) [11]: 636
- P3_MyD88 Rank (before) [12]: 3714
Sequence: KMQKWNDALYEAAHLR

- P3_MyD88 Rank (after) [13]: 577
- P3_MyD88 Rank (before) [14]: 3470
Sequence: NQWRFGSKVDAWKAAL

- P3_MyD88 Rank (after) [9]: 698
- P3_MyD88 Rank (before) [10]: 3527
Sequence: NQWRNELTPAANLSGW
